Data as given in PubChem BioAssay (NCI).
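Method: 48-hour compound exposure of cells in 96-well plates, five concentrations, linear interpolation of endpoints. Definition used: TGI = concentration required for complete inhibition of growth.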

How the values were obtained:
Test in all cases: NCI-60 cell line screen, 48 h
K-562 leukemia = system: K-562 leukemia
SNB-19 CNS = system: SNB-19 CNS
M14 melanoma = system: M14 melanoma
HOP-92 NSCLC = system: HOP-92 NSCLC
SK-OV-3 ovarian = system: SK-OV-3 ovarian
A498 renal = system: A498 renal
BT-549 breast = system: BT-549 breast
NCI-H460 lung = system: NCI-H460 lung
LOX IMVI melanoma = system: LOX IMVI melanoma
786-0 renal = system: 786-0 renal
DU-145 prostate = system: DU-145 prostate
NCI/ADR-RES ovarian = system: NCI/ADR-RES ovarian
SF-539 CNS = system: SF-539 CNS
OVCAR-5 ovarian = system: OVCAR-5 ovarian
HS 578T breast = system: HS 578T breast
HOP-62 NSCLC = system: HOP-62 NSCLC
OVCAR-8 ovarian = system: OVCAR-8 ovarian
SR leukemia = system: SR leukemia
SF-295 CNS = system: SF-295 CNS
IGROV1 ovarian = system: IGROV1 ovarian
MDA-MB-231 breast = system: MDA-MB-231 breast
A549 NSCLC = system: A549 NSCLC
HCT-116 colon = system: HCT-116 colon
RPMI-8226 leukemia = system: RPMI-8226 leukemia
SK-MEL-5 melanoma = system: SK-MEL-5 melanoma
MALME-3M melanoma = system: MALME-3M melanoma
UACC-62 melanoma = system: UACC-62 melanoma
SK-MEL-28 melanoma = system: SK-MEL-28 melanoma
KM12 colon = system: KM12 colon
SNB-75 CNS = system: SNB-75 CNS
SF-268 CNS = system: SF-268 CNS
T-47D breast = system: T-47D breast
MDA-N = system: MDA-N
MOLT-4 leukemia = system: MOLT-4 leukemia
TK-10 renal = system: TK-10 renal
CAKI-1 renal = system: CAKI-1 renal
HCT-15 colon = system: HCT-15 colon
UO-31 renal = system: UO-31 renal
PC-3 prostate = system: PC-3 prostate
OVCAR-3 ovarian = system: OVCAR-3 ovarian
SW-620 colon = system: SW-620 colon
EKVX NSCLC = system: EKVX NSCLC
MDA-MB-435 = system: MDA-MB-435
HT29 colon = system: HT29 colon
SK-MEL-2 melanoma = system: SK-MEL-2 melanoma
ACHN renal = system: ACHN renal
U251 CNS = system: U251 CNS
RXF 393 renal = system: RXF 393 renal
NCI-H522 lung = system: NCI-H522 lung
COLO 205 colon = system: COLO 205 colon
NCI-H23 lung = system: NCI-H23 lung
CCRF-CEM leukemia = system: CCRF-CEM leukemia
MCF7 breast = system: MCF7 breast
UACC-257 melanoma = system: UACC-257 melanoma
SN12C renal = system: SN12C renal
HL-60(TB) leukemia = system: HL-60(TB) leukemia
OVCAR-4 ovarian = system: OVCAR-4 ovarian
HCC-2998 colon = system: HCC-2998 colon
NCI-H226 lung = system: NCI-H226 lung

In the case of `CN(C)c1ccc(/C=c2/c3ccccc3n3nc4ccccc4c23)cc1`, the TGI (K-562 leukemia) is reported as over 100 µM, the TGI (SNB-19 CNS) is reported as over 100 µM and the TGI (M14 melanoma) is reported as over 100 µM. It also gave a TGI (HOP-92 NSCLC) of 90.7 µM, a TGI (SK-OV-3 ovarian) of over 100 µM and a TGI (A498 renal) of 67 µM. For the same compound, the TGI (BT-549 breast) was 71.5 µM, the TGI (NCI-H460 lung) was over 100 µM and the TGI (LOX IMVI melanoma) was over 100 µM. For the same compound, the TGI (786-0 renal) was over 100 µM, the TGI (DU-145 prostate) was over 100 µM and the TGI (NCI/ADR-RES ovarian) was over 100 µM. It also gave a TGI (SF-539 CNS) of 84.8 µM, a TGI (OVCAR-5 ovarian) of over 100 µM and a TGI (HS 578T breast) of over 100 µM. For the same compound, the TGI (HOP-62 NSCLC) was over 100 µM, the TGI (OVCAR-8 ovarian) was over 100 µM and the TGI (SR leukemia) was 25.1 µM. For the same compound, the TGI (SF-295 CNS) was 70.6 µM, the TGI (IGROV1 ovarian) was over 100 µM and the TGI (MDA-MB-231 breast) was over 100 µM. For the same compound, the TGI (A549 NSCLC) was over 100 µM, the TGI (HCT-116 colon) was over 100 µM and the TGI (RPMI-8226 leukemia) was 39.1 µM. For the same compound, the TGI (SK-MEL-5 melanoma) was 73.5 µM, the TGI (MALME-3M melanoma) was over 100 µM and the TGI (UACC-62 melanoma) was over 100 µM. For the same compound, the TGI (SK-MEL-28 melanoma) was over 100 µM, the TGI (KM12 colon) was over 100 µM and the TGI (SNB-75 CNS) was 27.7 µM. The TGI (SF-268 CNS) was over 100 µM, the TGI (T-47D breast) was 55.4 µM and the TGI (MDA-N) was 33.6 µM. It also gave a TGI (MOLT-4 leukemia) of over 100 µM, a TGI (TK-10 renal) of over 100 µM and a TGI (CAKI-1 renal) of over 100 µM. The TGI (HCT-15 colon) was over 100 µM, the TGI (UO-31 renal) was over 100 µM and the TGI (PC-3 prostate) was over 100 µM. The TGI (OVCAR-3 ovarian) was over 100 µM, the TGI (SW-620 colon) was over 100 µM and the TGI (EKVX NSCLC) was over 100 µM. For the same compound, the TGI (MDA-MB-435) was over 100 µM, the TGI (HT29 colon) was over 100 µM and the TGI (SK-MEL-2 melanoma) was over 100 µM. The TGI (ACHN renal) was over 100 µM, the TGI (U251 CNS) was over 100 µM and the TGI (RXF 393 renal) was 66.8 µM. It also gave a TGI (NCI-H522 lung) of 31.9 µM, a TGI (COLO 205 colon) of 50.9 µM and a TGI (NCI-H23 lung) of over 100 µM. The TGI (CCRF-CEM leukemia) was 76.5 µM, the TGI (MCF7 breast) was over 100 µM and the TGI (UACC-257 melanoma) was over 100 µM. It also gave a TGI (SN12C renal) of over 100 µM and a TGI (HL-60(TB) leukemia) of over 100 µM.
In the case of `COc1ccc(-c2c(=O)[nH]n3c(=S)nc(-c4ccccc4)[nH]c23)cc1OC`, the TGI (K-562 leukemia) is reported as 95 µM, the TGI (SNB-19 CNS) is reported as 28.5 µM and the TGI (M14 melanoma) is reported as 38 µM. For the same compound, the TGI (HOP-92 NSCLC) was 37 µM, the TGI (SK-OV-3 ovarian) was 55.9 µM and the TGI (A498 renal) was 33.1 µM. It also gave a TGI (BT-549 breast) of 37.6 µM, a TGI (NCI-H460 lung) of over 100 µM and a TGI (LOX IMVI melanoma) of 37 µM. For the same compound, the TGI (786-0 renal) was 33.9 µM, the TGI (DU-145 prostate) was 52.3 µM and the TGI (NCI/ADR-RES ovarian) was 55.7 µM. For the same compound, the TGI (OVCAR-5 ovarian) was 47.3 µM, the TGI (HS 578T breast) was over 100 µM and the TGI (HOP-62 NSCLC) was 84.9 µM. The TGI (OVCAR-8 ovarian) was 50.4 µM, the TGI (SR leukemia) was 24.2 µM and the TGI (SF-295 CNS) was 51.4 µM. For the same compound, the TGI (IGROV1 ovarian) was 56.7 µM, the TGI (MDA-MB-231 breast) was 97.8 µM and the TGI (A549 NSCLC) was over 100 µM. For the same compound, the TGI (HCT-116 colon) was 31.4 µM, the TGI (SK-MEL-5 melanoma) was 30.1 µM and the TGI (MALME-3M melanoma) was 40.7 µM. For the same compound, the TGI (UACC-62 melanoma) was 39.8 µM, the TGI (SK-MEL-28 melanoma) was 54.7 µM and the TGI (KM12 colon) was 35.8 µM. The TGI (SNB-75 CNS) was 54 µM, the TGI (SF-268 CNS) was over 100 µM and the TGI (T-47D breast) was 42.6 µM. For the same compound, the TGI (MDA-N) was 28.3 µM, the TGI (MOLT-4 leukemia) was 33.4 µM and the TGI (TK-10 renal) was 53.1 µM. For the same compound, the TGI (CAKI-1 renal) was 51.6 µM, the TGI (HCT-15 colon) was 41.6 µM and the TGI (UO-31 renal) was 33.8 µM. For the same compound, the TGI (OVCAR-4 ovarian) was 61.1 µM, the TGI (PC-3 prostate) was 90.7 µM and the TGI (SW-620 colon) was 83.8 µM. The TGI (EKVX NSCLC) was 60.8 µM, the TGI (MDA-MB-435) was 39.2 µM and the TGI (HT29 colon) was 48.8 µM. The TGI (ACHN renal) was 51.1 µM, the TGI (U251 CNS) was 58.5 µM and the TGI (RXF 393 renal) was 32.4 µM. It also gave a TGI (NCI-H522 lung) of 37.9 µM, a TGI (HCC-2998 colon) of 36.1 µM and a TGI (COLO 205 colon) of 31.3 µM. For the same compound, the TGI (NCI-H23 lung) was 58.3 µM, the TGI (CCRF-CEM leukemia) was 31.1 µM and the TGI (MCF7 breast) was 36.9 µM. For the same compound, the TGI (UACC-257 melanoma) was 61.1 µM, the TGI (NCI-H226 lung) was 40.7 µM and the TGI (SN12C renal) was 37.3 µM. For the same compound, the TGI (HL-60(TB) leukemia) was 39.3 µM.
